IC50 data for 15 molecules are collected here from patent US20230097157A1, “Bicyclic Pyridin-2-one and pyrimidin-4-one Derivatives Useful As a Factor XIa Inhibitors” (Janssen Pharmaceutica NV, priority 2021, published 2023).

In one test the target is human plasma kallikrein (Homo sapiens, UniProt P03952). Description: Kallikrein inhibition assay (FLINT) utilizing a quenched AMC peptide substrate Z-Gly-Pro-Arg-AMC. In kind it is biochemical. The following applies: kinetic (KIN) reads, read-out: Kallikrein KIN Inh IC50. In a few lines: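 IC50 from a 4-parameter logistic fit of % inhibition from 11 concentrations (3-fold, top 1 μM, 2% DMSO). Compound pre-incubated 30 min with 2 nM enzyme in Tris pH 7.5, NaCl, CaCl2, BSA, CHAPS, then 50 μM AMC peptide substrate added. Fluorescence (340/440 nm) followed every 5 min for 30 min at room temperature.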

Another test concerns the target Factor XIa (Homo sapiens, UniProt P03951). The test is described as follows: Factor XIa inhibition assay (FLINT) utilizing a fluorophore-quencher pair peptide substrate 5Fam-[…]-K5Tamra. The following applies: kinetic (KIN) reads, read-out: FXIa KIN Inh IC50. The test is classed as biochemical. Put shortly:
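Compounds were tested as 11-point 3-fold dilutions from 100 nM (2% DMSO). They were preincubated 30 min with FXIa in 50 mM Tris pH 7.5, 5 mM CaCl2, then 15 μM fluorophore-quencher peptide was added. Cleavage was followed at 485/520 nm over 30 min, and IC50 was derived by 4-parameter logistic fit.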

Read-outs that look alike come from different tables or passages of the source.

human plasma kallikrein, sequence (P03952 391-638 limits assumed): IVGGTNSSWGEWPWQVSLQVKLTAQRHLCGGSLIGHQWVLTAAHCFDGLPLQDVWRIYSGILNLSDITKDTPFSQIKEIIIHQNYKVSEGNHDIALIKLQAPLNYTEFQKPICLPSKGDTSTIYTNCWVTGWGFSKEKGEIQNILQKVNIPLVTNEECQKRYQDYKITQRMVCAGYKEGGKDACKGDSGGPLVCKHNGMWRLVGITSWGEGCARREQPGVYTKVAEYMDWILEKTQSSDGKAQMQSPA
human plasma kallikrein, sequence (P03952 20-390 partner limits assumed): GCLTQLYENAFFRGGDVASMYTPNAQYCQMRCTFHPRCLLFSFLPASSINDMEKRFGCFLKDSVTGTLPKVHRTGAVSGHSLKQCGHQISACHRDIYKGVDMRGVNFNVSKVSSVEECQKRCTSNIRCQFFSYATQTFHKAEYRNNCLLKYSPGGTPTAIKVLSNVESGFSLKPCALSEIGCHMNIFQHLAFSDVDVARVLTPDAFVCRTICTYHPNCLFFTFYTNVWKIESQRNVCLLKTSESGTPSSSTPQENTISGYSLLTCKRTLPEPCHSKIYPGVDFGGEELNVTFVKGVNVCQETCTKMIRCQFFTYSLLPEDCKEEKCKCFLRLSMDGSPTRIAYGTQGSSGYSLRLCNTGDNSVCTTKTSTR
Factor XIa, sequence (P03951 388-625 limits assumed): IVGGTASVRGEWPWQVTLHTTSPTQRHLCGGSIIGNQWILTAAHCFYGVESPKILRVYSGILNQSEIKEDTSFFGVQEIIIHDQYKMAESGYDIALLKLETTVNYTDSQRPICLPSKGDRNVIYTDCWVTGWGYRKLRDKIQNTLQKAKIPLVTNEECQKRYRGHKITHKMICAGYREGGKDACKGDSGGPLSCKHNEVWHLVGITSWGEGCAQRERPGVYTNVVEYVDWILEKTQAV
Factor XIa, sequence (P03951 19-387 partner limits assumed): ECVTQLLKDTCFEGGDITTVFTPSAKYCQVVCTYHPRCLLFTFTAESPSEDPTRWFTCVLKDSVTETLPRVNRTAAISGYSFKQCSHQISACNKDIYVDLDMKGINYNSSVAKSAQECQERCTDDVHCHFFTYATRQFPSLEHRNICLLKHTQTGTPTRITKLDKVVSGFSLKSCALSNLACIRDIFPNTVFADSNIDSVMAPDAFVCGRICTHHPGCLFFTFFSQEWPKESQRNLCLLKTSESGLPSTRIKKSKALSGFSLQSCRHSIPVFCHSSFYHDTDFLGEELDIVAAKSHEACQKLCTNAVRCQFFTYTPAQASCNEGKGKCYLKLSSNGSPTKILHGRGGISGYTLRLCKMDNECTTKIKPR

For `C[C@@H]1C[C@@H](c2ncc(-c3cn[nH]c3)[nH]2)n2c1nc(-c1c(-n3cnnn3)ccc(Cl)c1F)cc2=O` (stereo in doubt) [Example 111, (6*S,8*R)-6-(5-(1H-Pyrazol-4-yl)-1H-imidazol-2-yl)-2-(3-chloro-2-fluoro-6-(1H-tetrazol-1-yl)phenyl)-8-methyl-7,8-dihydropyrrolo[1,2-a]pyrimidin-4(6H)-one], the IC50 on human plasma kallikrein (values in nM) was 146 nM; on Factor XIa (values in nM) it was 22.6 nM.
With `C[C@H]1C[C@@H](c2cnc(-c3ccc(N)nc3F)[nH]2)n2c1cc(-c1c(-n3cnnn3)ccc(Cl)c1F)cc2=O` (stereo in doubt) [Example 54, (1 S*,3S*)-3-(2-(6-Amino-2-fluoropyridin-3-yl)-1H-imidazol-5-yl)-7-(3-chloro-2-fluoro-6-(1H-tetrazol-1-yl)phenyl)-1-methyl-2,3-dihydroindolizin-5(1H)-one], the IC50 was over 10000 nM at human plasma kallikrein (unit μM) and 430 nM on Factor XIa (values in nM).
With `COc1cc(-c2cnc([C@H]3C[C@H](C)c4nc(-c5c(-n6cnnn6)ccc(Cl)c5F)cc(=O)n43)[nH]2)ccn1` (stereo in doubt) [Example 100, (6*R,8*S)-2-(3-Chloro-2-fluoro-6-(1H-tetrazol-1-yl)phenyl)-6-(5-(2-methoxypyridin-4-yl)-1H-imidazol-2-yl)-8-methyl-7,8-dihydropyrrolo[1,2-a]pyrimidin-4(6H)-one], the IC50 was 7.6 nM on human plasma kallikrein (values in nM) and 6.9 nM at Factor XIa (values in nM).
As to `Cc1nc(N)sc1-c1cnc([C@@H]2CC3(CC3)c3nc(-c4c(-n5cnnn5)ccc(Cl)c4F)cc(=O)n32)[nH]1` [Example 131, (S)-6′-(5-(2-Amino-4-methylthiazol-5-yl)-1H-imidazol-2-yl)-2′-(3-chloro-2-fluoro-6-(1H-tetrazol-1-yl)phenyl)-6′,7′-dihydro-4′H-spiro[cyclopropane-1,8′-pyrrolo[1,2-a]pyrimidin]-4′-one], the IC50 on human plasma kallikrein (values in nM) is 669 nM; on Factor XIa (values in nM), 92.2 nM.
`C[C@@H]1C[C@@H](c2ncc(-c3cnc(N)c(F)c3)[nH]2)n2c1cc(-c1c(-n3cnnn3)ccc(Cl)c1F)cc2=O` (relative stereo) [Example 62, (1*R,3*S)-3-(5-(6-amino-5-fluoropyridin-3-yl)-1H-imidazol-2-yl)-7-(3-chloro-2-fluoro-6-(1H-tetrazol-1-yl)phenyl)-1-methyl-2,3-dihydroindolizin-5(1H)-one]: the IC50 at human plasma kallikrein (values in nM) was 18.1 nM; at Factor XIa (values in nM), 19.6 nM.
In the case of `C[C@@H]1C[C@H](c2ncc(-c3ccc(N)nc3F)[nH]2)n2c1cc(-c1c(-n3cnnn3)ccc(Cl)c1F)cc2=O` (stereo in doubt) [Example 56, (1*R,3*R)-3-(5-(6-Amino-2-fluoropyridin-3-yl)-1H-imidazol-2-yl)-7-(3-chloro-2-fluoro-6-(1H-tetrazol-1-yl)phenyl)-1-methyl-2,3-dihydroindolizin-5(1H)-one], the IC50 was over 10000 nM at human plasma kallikrein (unit μM) and 1200 nM at Factor XIa (unit μM).
For `COC(=O)Nc1ccc(-c2cnc([C@@H]3C[C@H](C)c4cc(-c5c(-n6cnnn6)ccc(Cl)c5F)cc(=O)n43)[nH]2)cc1` (relative stereo) [Example 64, Methyl(4-(2-((1*S,3*S)-7-(3-chloro-2-fluoro-6-(1H-tetrazol-1-yl)phenyl)-1-methyl-5-oxo-1,2,3,5-tetrahydroindolizin-3-yl)-1H-imidazol-5-yl)phenyl)carbamate], the IC50 on human plasma kallikrein (unit μM) came to 5400 nM; at Factor XIa (unit μM) it was 1700 nM.
For `C[C@H]1C[C@@H](c2ncc(-c3ncc(N)nc3C3CC3)[nH]2)n2c1nc(-c1c(-n3cnnn3)ccc(Cl)c1F)cc2=O` (relative stereo) [Example 91, (6*S,8*S)-6-(5-(5-Amino-3-cyclopropylpyrazin-2-yl)-1H-imidazol-2-yl)-2-(3-chloro-2-fluoro-6-(1H-tetrazol-1-yl)phenyl)-8-methyl-7,8-dihydropyrrolo[1,2-a]pyrimidin-4(6H)-one], the IC50 on human plasma kallikrein (values in nM) was determined as 168 nM; on Factor XIa (values in nM) it was 39 nM.
In the case of `Cc1cc(-c2cnc([C@@H]3C[C@@H](C)c4cc(-c5c(-n6cnnn6)ccc(Cl)c5F)cc(=O)n43)[nH]2)ccn1` (stereo in doubt) [Example 41, (1*R,3*S)-7-(3-Chloro-2-fluoro-6-(1H-tetrazol-1-yl)phenyl)-1-methyl-3-(5-(2-methylpyridin-4-yl)-1H-imidazol-2-yl)-2,3-dihydroindolizin-5(1H)-one], the results for the IC50 at human plasma kallikrein (unit μM) and on Factor XIa (values in nM) were 2200 nM and 346 nM, respectively.
Turning to `C[C@H]1C[C@@H](c2ncc(-c3ccnc(F)c3)[nH]2)n2c1cc(-c1c(-n3cnnn3)ccc(Cl)c1F)cc2=O` (stereo in doubt) [Example 44, (1*S,3*S)-7-(3-Chloro-2-fluoro-6-(1H-tetrazol-1-yl)phenyl)-3-(5-(2-fluoropyridin-4-yl)-1H-imidazol-2-yl)-1-methyl-2,3-dihydroindolizin-5(1H)-one], the results for the IC50 at human plasma kallikrein (values in nM) and at Factor XIa (values in nM) were 97.8 nM and 14.9 nM, respectively.
For `CC1CC(c2ncc(-c3ccnc(CO)c3F)[nH]2)n2c1nc(-c1c(-n3cnnn3)ccc(Cl)c1F)cc2=O` (single isomer, unassigned) [Example 77, (6S*)-2-(3-Chloro-2-fluoro-6-(1H-tetrazol-1-yl)phenyl)-6-(5-(3-fluoro-2-(hydroxymethyl)pyridin-4-yl)-1H-imidazol-2-yl)-8-methyl-7,8-dihydropyrrolo[1,2-a]pyrimidin-4(6H)-one], in that order: 167 nM and 19.6 nM.
As to `Cc1nc(N)ccc1-c1cnc([C@@H]2C[C@H](C)c3cc(-c4c(-n5cnnn5)ccc(Cl)c4F)cc(=O)n32)[nH]1` (relative stereo) [Example 51, (1*S,3*S)-3-(5-(6-Amino-2-methylpyridin-3-yl)-1H-imidazol-2-yl)-7-(3-chloro-2-fluoro-6-(1H-tetrazol-1-yl)phenyl)-1-methyl-2,3-dihydroindolizin-5(1H)-one], the IC50 was determined as 49.2 nM at human plasma kallikrein (values in nM) and 0.8 nM on Factor XIa (values in nM).
As to `O=c1cc(-c2c(-n3cnnn3)ccc(Cl)c2F)nc2n1[C@H](c1nc(-c3ccnc(OCC(O)C(F)(F)F)c3F)c[nH]1)CC21CC1` (single isomer, unassigned) [Example 74, (S)-2′-(3-chloro-2-fluoro-6-(1H-tetrazol-1-yl)phenyl)-6′-(4-(3-fluoro-2-((R*)-3,3,3-trifluoro-2-hydroxypropoxy)pyridin-4-yl)-1H-imidazol-2-yl)-6′,7′-dihydro-4′H-spiro[cyclopropane-1,8′-pyrrolo[1,2-a]pyrimidin]-4′-one], the 50% inhibitory concentration (IC50) at human plasma kallikrein (values in nM) is 27.7 nM; on Factor XIa (values in nM), 32.1 nM.
For `C[C@H]1C[C@@H](c2ncc(-c3ccnc(CO)c3F)[nH]2)n2c1cc(-c1c(-n3cnnn3)ccc(Cl)c1F)cc2=O` (relative stereo) [Example 2, (1 S*,3S*)-7-(3-Chloro-2-fluoro-6-(1H-tetrazol-1-yl)phenyl)-3-(5-(3-fluoro-2-(hydroxymethyl)pyridin-4-yl)-1H-imidazol-2-yl)-1-methyl-2,3-dihydroindolizin-5(1H)-one], in that order: 170 nM and 22 nM.
For `C[C@H]1C[C@H](c2ncc(-c3ncc(N)nc3C3CC3)[nH]2)n2c1nc(-c1c(-n3cnnn3)ccc(Cl)c1F)cc2=O` (relative stereo) [Example 90, (6*R,8*S)-6-(5-(5-Amino-3-cyclopropylpyrazin-2-yl)-1H-imidazol-2-yl)-2-(3-chloro-2-fluoro-6-(1H-tetrazol-1-yl)phenyl)-8-methyl-7,8-dihydropyrrolo[1,2-a]pyrimidin-4(6H)-one], in that order: 298 nM and 21.4 nM.

In general, IC50 refers to the concentration at which inhibition is half-maximal.
